These results are taken from US5110927A (The United States of America as represented by the …, priority 1987, dated 1992).

Entries after “also recorded” stand apart in the source; their conditions may differ.

Assay [1] deals with alpha1-adrenoceptors and other receptors. The note with it: prior art, cited from earlier work.
The target in assay [2] is α1-adrenoceptor (3H-prazosin binding sites). Put plainly: irreversibility experiment: membranes preincubated with compound, washed, assayed for saturation of 3H-prazosin binding. Details: species or system rat. The note with it: for irreversible blockade / effect on 3H-prazosin binding sites (in words): membranes, preincubation and washing.
Assay [3] shares this target. Kind of assay: displacement of 3H-prazosin from rat cerebral cortical (brain) membranes. The note with it: for -logIC50: 3H-prazosin displacement, rat cerebral cortical membranes; for affinity to alpha1-adrenoceptors (in words): discussion of Table 1. As to the method:
IC50 values and apparent Ki values were determined as in Table 1.
Rat brain cortices were homogenized in approximately 30 volumes/wet weight of 50 mM Tris buffer, pH 7.4, containing 10 mM MgCl2 by use of a Polytron (setting 6 for 10 seconds). It should be noted that this buffer was used throughout the experimental procedures. The homogenate was centrifuged at 48,000×g for 10 minutes in a Sorvall RC-5B centrifuge. The resulting pellet was resuspended in buffer by use of a Polytron and recentrifuged. This process was repeated and the pellet was resuspended in approximately 200 volumes for affinity studies or 20 volumes for irreversibility experiments.
Specific binding was defined as the difference between total binding (measured in the absence of any ligand) and non-specific binding (measured in the presence of 10 microM phentolamine). Duplicate tubes were used for each condition. Reaction tubes were incubated for 30 minutes at 30° C., then diluted to 5 ml with ice cold buffer, and filtered under reduced pressure through Whatman GF/C glass fiber filters. The reaction tubes and filters were washed three additional times with buffer.
Background: Displacement assays read how much labelled ligand stays bound in the presence of the test substance.

For assay [4], the system named is spontaneously hypertensive rats. Conditions: conscious; previously shown; cited from earlier work.

Consider `CC(COc1ccccc1)N(CCCl)Cc1ccccc1` (stereo not shown) [phenoxybenzamine, reference compound], for which, in assay [1], the “receptor specificity (in words)” value is reported as “not very specific”. For the same compound, in assay [2] (after preincubation and washing), the “Kd (KD) of remaining 3H-prazosin binding sites (in words)” value is recorded as “without significant Kd changes in the remaining sites”. Further, in assay [2] (brain membranes, FIG. 4), the “blockade of 3H-prazosin binding sites by phenoxybenzamine” value is given as “approximately 85%”. Further, in assay [2], the “irreversible blockade / effect on 3H-prazosin binding sites (in words)” value (“irreversible blockade / effect” below) was “block almost all ^3 -prazosin binding sites in brain membranes”.
In the case of `COc1cc2nc(N3CCN(C(=O)C4=CC5CCC4CC5)CC3)nc(N)c2cc1OC` [Compound 48], the “overall behaviour compared with compound 47” value in assay [2] is listed as “behaves similarly to 47 in those aspects which were investigated”. In assay [3], the “-logIC50” value is reported as 8.4.
Regarding `COc1cc2nc(N3CCN(C(=O)/C=C/c4ccccc4)CC3)nc(N)c2cc1OC` [Compound 9], the “reduction of blood pressure in spontaneously hypertensive rats” value in assay [4] is on record as “capable of reducing blood pressure”. In addition, the “irreversible blockade / effect” value in assay [2] is reported as “do not attach irreversibly to the receptor”. Moreover, the “-logIC50” value in assay [3] was 9.16.
As to `C/C=C/C=C/C(=O)N1CCN(c2nc(N)c3cc(OC)c(OC)cc3n2)CC1` [Compound 6], the “irreversible blockade / effect” value in assay [2] is “did not irreversibly block alpha1 -adrenoceptors; also recorded: do not attach irreversibly to the receptor”. Moreover, in assay [3], the “-logIC50” value is 8.81 and the “affinity to alpha1-adrenoceptors (in words)” value (from here on “affinity”) is on record as “high affinity”.
`c1c[nH]c(CNCCCCCCNCCSSCCNCCCCCCNCc2ccc[nH]2)c1` [pyrextramine]: the “receptor specificity (in words)” value in assay [1] is “block peripheral alpha2 -adrenergic responses as well”.
`CCOC(=O)N1c2ccccc2C=CC1OCC` (stereo not shown) [N-ethoxycarbonyl-2-ethoxy-1,2-dihydroquinoline]: the “concentration required relative to more specific chemoreactive labels” value in assay [1] (factor higher) was “about 10^4”. In addition, the “receptor specificity (in words)” value in assay [1] is on record as “receptor specificity of N-ethoxycarbonyl-2-ethoxy-1,2-dihydroquinoline is also low”.
As to `COc1cc2nc(N3CCN(C(=O)c4ccc(N=C=S)c(I)c4)CC3)nc(N)c2cc1OC` [Compound 41], in assay [3], the “-logIC50” value was 7.29 and the “affinity” value was “much lower affinity”.
For the compound `COc1cc2nc(N3CCN(S(=O)(=O)c4cccs4)CC3)nc(N)c2cc1OC` [Compound 44], in assay [3], the “-logIC50” value was found to be 7.47 and the “affinity” value was “low affinity”.
